The results in this text go back to paper PMC5007619 (Biochemistry, 2016).

What is called EC50 is the midpoint of the concentration-response curve. Low values mean an effect from little substance, high ones a need for much substance.

One assay concerns the target p300 (Homo sapiens, UniProt Q09472). The assay is described as follows: […]acetyl-CoA nucleosome acetyltransferase assay. It is filed as biochemical.
The next assay concerns the target CBP (Homo sapiens, UniProt Q92793). Put plainly: H3K18ac Western blot of nucleosome acetylation by purified CBP. Format: biochemical. Background: A western blot detects proteins with antibodies after separation by electrophoresis.

Chain of CBP (Q92793 2-2442): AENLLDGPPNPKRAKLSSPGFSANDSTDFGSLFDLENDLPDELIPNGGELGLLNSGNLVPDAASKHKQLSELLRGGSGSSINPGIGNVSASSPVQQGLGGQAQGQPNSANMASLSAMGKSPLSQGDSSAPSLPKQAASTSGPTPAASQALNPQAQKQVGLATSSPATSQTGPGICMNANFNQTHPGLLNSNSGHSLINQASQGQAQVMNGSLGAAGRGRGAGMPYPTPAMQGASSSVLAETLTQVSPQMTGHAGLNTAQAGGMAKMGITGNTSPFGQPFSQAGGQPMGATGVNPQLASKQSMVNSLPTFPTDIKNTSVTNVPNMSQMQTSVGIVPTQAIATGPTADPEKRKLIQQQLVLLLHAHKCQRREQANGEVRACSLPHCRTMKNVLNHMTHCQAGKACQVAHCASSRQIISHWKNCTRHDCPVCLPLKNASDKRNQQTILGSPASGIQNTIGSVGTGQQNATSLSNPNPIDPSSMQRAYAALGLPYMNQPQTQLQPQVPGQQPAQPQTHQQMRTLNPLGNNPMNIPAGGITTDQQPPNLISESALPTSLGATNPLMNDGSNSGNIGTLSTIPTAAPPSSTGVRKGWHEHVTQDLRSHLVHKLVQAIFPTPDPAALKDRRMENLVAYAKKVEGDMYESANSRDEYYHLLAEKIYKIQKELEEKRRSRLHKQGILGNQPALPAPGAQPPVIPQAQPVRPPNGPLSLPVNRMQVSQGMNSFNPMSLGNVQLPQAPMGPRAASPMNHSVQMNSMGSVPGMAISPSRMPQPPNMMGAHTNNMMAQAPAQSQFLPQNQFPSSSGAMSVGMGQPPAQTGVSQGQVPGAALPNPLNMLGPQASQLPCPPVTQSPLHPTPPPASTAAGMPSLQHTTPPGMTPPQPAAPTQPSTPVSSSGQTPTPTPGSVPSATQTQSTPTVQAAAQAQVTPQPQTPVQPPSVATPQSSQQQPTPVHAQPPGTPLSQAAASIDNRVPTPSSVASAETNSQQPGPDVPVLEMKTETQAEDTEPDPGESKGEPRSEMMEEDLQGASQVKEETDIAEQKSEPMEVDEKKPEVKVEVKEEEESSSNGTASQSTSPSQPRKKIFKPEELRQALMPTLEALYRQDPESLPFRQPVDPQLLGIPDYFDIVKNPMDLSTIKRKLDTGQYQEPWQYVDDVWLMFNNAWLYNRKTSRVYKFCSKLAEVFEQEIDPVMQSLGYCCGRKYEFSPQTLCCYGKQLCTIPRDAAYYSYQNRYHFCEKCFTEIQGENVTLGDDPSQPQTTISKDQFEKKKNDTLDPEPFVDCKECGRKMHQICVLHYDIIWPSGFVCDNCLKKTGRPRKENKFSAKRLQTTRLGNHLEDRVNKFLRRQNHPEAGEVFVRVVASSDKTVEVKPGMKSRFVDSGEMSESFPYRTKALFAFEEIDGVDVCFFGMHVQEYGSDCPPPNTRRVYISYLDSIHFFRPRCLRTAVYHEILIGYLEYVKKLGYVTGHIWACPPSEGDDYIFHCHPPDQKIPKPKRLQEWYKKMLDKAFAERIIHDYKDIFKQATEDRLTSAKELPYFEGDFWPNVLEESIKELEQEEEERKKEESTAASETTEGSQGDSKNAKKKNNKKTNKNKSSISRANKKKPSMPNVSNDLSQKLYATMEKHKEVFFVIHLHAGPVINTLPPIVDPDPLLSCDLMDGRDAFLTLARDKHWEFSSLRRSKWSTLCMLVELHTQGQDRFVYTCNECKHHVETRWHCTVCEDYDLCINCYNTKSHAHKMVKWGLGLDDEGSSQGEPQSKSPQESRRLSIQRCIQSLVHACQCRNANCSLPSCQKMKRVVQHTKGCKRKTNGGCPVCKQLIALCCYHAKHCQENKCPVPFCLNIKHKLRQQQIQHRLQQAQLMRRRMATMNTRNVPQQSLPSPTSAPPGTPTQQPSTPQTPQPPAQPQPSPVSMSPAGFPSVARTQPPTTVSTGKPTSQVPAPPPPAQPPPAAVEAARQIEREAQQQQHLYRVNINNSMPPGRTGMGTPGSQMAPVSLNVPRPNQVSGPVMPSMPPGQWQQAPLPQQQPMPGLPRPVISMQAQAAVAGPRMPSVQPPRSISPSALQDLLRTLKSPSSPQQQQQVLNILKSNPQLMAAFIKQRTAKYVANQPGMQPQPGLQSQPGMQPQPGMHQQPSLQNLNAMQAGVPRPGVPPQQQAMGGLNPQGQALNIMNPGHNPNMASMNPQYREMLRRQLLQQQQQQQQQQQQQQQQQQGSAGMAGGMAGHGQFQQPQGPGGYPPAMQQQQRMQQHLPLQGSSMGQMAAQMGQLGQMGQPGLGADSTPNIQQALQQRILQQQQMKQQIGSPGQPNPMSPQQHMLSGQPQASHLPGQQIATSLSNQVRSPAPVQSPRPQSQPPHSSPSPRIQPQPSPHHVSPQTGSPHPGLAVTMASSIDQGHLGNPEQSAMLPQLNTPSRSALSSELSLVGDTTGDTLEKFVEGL
Chain of p300 (Q09472 2-2414): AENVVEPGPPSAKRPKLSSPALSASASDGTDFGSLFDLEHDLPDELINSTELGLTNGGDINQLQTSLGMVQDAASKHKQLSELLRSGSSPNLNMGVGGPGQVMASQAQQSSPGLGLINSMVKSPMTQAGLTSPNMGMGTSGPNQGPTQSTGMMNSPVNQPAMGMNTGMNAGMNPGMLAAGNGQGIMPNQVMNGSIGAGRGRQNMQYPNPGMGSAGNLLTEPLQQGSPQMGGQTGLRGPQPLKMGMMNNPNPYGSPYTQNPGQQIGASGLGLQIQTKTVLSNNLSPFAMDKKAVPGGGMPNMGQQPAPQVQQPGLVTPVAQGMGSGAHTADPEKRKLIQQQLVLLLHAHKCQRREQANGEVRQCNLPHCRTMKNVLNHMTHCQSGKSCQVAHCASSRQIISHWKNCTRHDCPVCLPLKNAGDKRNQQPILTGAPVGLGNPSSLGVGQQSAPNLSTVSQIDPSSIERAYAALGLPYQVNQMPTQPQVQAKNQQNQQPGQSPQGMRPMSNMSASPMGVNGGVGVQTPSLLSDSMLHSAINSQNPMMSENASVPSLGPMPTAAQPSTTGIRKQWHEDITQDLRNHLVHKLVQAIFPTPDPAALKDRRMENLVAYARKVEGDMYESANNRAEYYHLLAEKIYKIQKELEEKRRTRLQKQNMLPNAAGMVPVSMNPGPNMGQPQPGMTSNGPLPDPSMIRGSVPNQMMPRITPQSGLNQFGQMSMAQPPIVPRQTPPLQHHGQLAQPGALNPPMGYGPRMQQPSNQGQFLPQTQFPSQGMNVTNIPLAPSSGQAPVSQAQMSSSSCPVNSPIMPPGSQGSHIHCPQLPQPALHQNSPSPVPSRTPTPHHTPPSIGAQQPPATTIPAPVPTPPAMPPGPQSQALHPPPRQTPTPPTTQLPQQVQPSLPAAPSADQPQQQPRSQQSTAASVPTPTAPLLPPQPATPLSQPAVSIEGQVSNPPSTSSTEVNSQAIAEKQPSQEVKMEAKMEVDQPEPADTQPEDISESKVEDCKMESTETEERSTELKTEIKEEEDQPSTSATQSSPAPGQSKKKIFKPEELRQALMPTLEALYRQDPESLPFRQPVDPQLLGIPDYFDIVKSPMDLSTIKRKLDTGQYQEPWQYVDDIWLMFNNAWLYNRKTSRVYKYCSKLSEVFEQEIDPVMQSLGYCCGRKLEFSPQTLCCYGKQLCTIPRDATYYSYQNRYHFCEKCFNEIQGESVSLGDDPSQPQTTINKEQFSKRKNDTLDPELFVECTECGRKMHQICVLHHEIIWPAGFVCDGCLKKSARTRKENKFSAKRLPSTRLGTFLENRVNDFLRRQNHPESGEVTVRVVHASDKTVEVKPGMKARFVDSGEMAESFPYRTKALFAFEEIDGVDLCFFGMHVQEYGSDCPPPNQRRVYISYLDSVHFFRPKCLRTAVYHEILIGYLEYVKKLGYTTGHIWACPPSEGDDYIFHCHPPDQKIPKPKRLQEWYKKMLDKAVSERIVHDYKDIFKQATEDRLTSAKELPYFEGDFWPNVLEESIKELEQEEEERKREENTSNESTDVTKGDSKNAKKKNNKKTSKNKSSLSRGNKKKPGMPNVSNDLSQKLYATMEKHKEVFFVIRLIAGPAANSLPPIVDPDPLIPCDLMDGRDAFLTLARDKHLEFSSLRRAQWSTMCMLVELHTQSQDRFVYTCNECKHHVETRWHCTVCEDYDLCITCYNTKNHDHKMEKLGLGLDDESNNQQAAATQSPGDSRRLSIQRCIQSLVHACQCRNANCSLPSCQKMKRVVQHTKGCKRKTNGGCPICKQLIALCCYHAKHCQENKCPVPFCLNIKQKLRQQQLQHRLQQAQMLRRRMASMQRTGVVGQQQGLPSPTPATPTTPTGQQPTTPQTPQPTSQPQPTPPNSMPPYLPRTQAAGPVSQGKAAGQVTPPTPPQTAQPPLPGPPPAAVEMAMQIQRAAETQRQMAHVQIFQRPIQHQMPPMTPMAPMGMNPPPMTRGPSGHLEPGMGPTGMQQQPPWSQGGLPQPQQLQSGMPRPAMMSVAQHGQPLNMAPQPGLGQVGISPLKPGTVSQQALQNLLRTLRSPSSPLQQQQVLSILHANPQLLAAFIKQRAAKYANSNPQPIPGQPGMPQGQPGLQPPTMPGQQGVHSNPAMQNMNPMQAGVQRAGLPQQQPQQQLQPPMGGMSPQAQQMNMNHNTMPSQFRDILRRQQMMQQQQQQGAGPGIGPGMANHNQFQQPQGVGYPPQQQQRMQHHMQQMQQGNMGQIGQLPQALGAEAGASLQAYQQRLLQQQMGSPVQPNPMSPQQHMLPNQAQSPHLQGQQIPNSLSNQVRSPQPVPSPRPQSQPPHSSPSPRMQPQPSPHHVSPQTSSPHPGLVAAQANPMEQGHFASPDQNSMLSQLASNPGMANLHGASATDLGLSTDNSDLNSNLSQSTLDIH

Take `CCC(=O)N1CCOc2c(cc(-c3ccc(OC)c(OC)c3)cc2OC[C@H]2CCCN(C)C2)C1` [I-CBP112, 1-[7-(3,4-dimethoxyphenyl)-9-{[(3S)-1-methylpiperidin-3-yl]-methoxy}-2,3,4,5-tetrahydro-1,4-benzoxazepin-4-yl]propan-1-one]: the concentration for a half-maximal effect (EC50) was 11 ± 3 µM at p300 and approximately 2 µM on CBP.
